Experimental data taken from patent publication US8410145B2, “Insecticidal compounds” (Syngenta Crop Protection LLC, priority 2007, dated 2013).

Assays:
Assay type in all cases: in vivo
[1] = tested on: Spodoptera littoralis, Heliothis virescens, Plutella xylostella, Diabrotica balteata, Thrips tabaci, Tetranychus urticae; assay: Pesticidal tests, same protocols (all six pests taken together); conditions: same protocols as b207 (200 ppm), under the test conditions
Description: (§1) Cotton leaf discs were placed on agar in a 24-well microtiter plate and sprayed with test solutions at an application rate of 200 ppm. After drying, the leaf discs were infested with 5 to L1 larvae. The samples were checked for mortality, feeding behavior, and growth regulation 3 days after treatment (DAT). The following compounds gave at least 80% control of Spodoptera littoralis: A1, A2, A3, A4, A6, A9, A10, A11, A12, A13, A14, A15, A16, A19, A20, A22, A23, A25, A26, A27, B1, B2, B3, B5, B6, B7, B8, B9, B11, B12, B13, B15, B16, B18, B19, B20, B21, B22, B24, B26, B27, B28, C1, C2, C3, C4, C5, C6, C7, C8, C9, C10, C12, C13, C16, C19, C20, C21, C22, C23, D1, D2, D3, D4, D5, D6, D7, D8, D9, D10, D11, D12, D13, D14, D15, D16, D17, D18, D19, D20, D21, D22, D23, D24. Heliothis virescens (Tobacco Budworm): Eggs (0-24 h old) were placed in 24-well microtiter plate on artificial diet and treated with test solutions at an application rate of 200 ppm (concentration in well 18 ppm) by pipetting. After an incubation period of 4 days, samples were checked for egg mortality, larval mortality, and growth regulation. The following compounds gave at least 80% control of Heliothis virescens: A1, A2, A3, A4, A13, A15, A17, A19, A20, A22, A23, A25, A26, A28, B1, B2, B3, B5, B6, B7, B9, B11, B13, B15, B18, B19, B20, B21, B25, B26, B27, B28, C1, C2, C3, C4, C5, C6, C7, C8, C9, C10, C12, C14, C16, C17, C19, C20, C21, C22, D1, D2, D3, D4, D5, D6, D7, D8, D9, D10, D11, D12, D13, D14, D15, D16, D17, D18, D19, D20, D21, D22, D23, E1, E2, E3, E4, E5. Plutella xylostella (Diamond Back Moth): 24-well microtiter plate (MTP) with artificial diet was treated with test solutions at an application rate of 200 ppm (concentration in well 18 ppm) by pipetting. After drying, the MTP's were infested with L2 larvae (7-12 per well). After an incubation period of 6 days, samples were checked for larval mortality and growth regulation. The following compounds gave at least 80% control of Plutella xylostella: A1, A3, A4, A10, All, A15, A19, A23, A25, B1, B2, B3, B5, B6, B7, B8, B9, B11, B13, B15, B18, B19, B20, B21, B26, B27, B28, C1, C2, C3, C4, C6, C7, C8, C9, C12, C16, C19, C20, C22, D1, D2, D3, D4, D5, D6, D7, D8, D9, D10, D12, D13, D14, D15, D16, D17, D18, D19, D20, D21, D22, D23, E1, E3, E5. Diabrotica balteata (Corn Root Worm): A 24-well microtiter plate (MTP) with artificial diet was treated with test solutions at an application rate of 200 ppm (concentration in well 18 ppm) by pipetting. After drying, the MTP's were infested with L2 larvae (6-10 per well). After an incubation period of 5 days, samples were checked for larval mortality and growth regulation. The following compounds gave at least 80% control of Diabrotica balteata: A2, A3, A4, A9, A11, A12, A13, A14, A15, A17, A19, A21, A22, A23, A24, A25, A26, B1, B2, B3, B6, B7, B8, B11, B13, B14, B15, B18, B19, B20, B21, B22, B26, B28, C1, C2, C3, C4, C5, C6, C7, C8, C9, C10, C12, C14, C15, C16, C19, C20, C21, C22, C23, C26, D1, D2, D4, D5, D6, D7, D8, D9, D10, D12, D14, D15, D16, D17, D18, D19, D20, D21, D22, D23, E2, E3, E5. Thrips tabaci (Onion Thrips): Sunflower leaf discs were placed on agar in a 24-well microtiter plate and sprayed with test solutions at an application rate of 200 ppm. After drying, the leaf discs were infested with an […] population of mixed ages. After an incubation period of 7 days, samples were checked for mortality. The following compounds gave at least 80% control of Thrips tabaci: B1, B7, B11, B15, B18, B19, B28, D1, D2, D3, D4, D5, D6, D7, D8, D9, D10, D12, D16, D18, D19, D20, D21, D23. Tetranychus urticae (Two-Spotted Spider Mite): Bean leaf discs on agar in 24-well microtiter plates were sprayed with test solutions at an application rate of 200 ppm. After drying, the leaf discs are infested with mite populations of mixed ages. 8 days later, discs are checked for egg mortality, larval mortality, and adult mortality. […]

[2] = tested on: Spodoptera littoralis (Egyptian Cotton Leafworm); assay: Spodoptera littoralis cotton leaf disc spray test; conditions: foliar, 72 h, 200 ppm spray on cotton leaf discs, L1 larvae, mortality, feeding behavior, growth regulation 3 DAT
Description: as §1

[3] = tested on: Plutella xylostella (Diamond Back Moth); assay: Plutella xylostella larvae test on artificial diet; conditions: 144 h, 200 ppm (concentration in well 18 ppm), L2 larvae, larval mortality and growth regulation after 6 days
Description: as §1

[4] = tested on: Heliothis virescens (Tobacco Budworm); assay: Heliothis virescens egg test on artificial diet; conditions: 96 h, 200 ppm (concentration in well 18 ppm), eggs 0-24 h old on artificial diet, egg mortality, larval mortality, growth regulation after 4 days
Description: as §1

[5] = tested on: Diabrotica balteata (Corn Root Worm); assay: Diabrotica balteata larvae test on artificial diet; conditions: 120 h, 200 ppm (concentration in well 18 ppm), L2 larvae, larval mortality and growth regulation after 5 days
Description: as §1

Structure (SMILES)	effect on mortality, feeding behavior, or growth regulation [1]	pest or weed control at 200 ppm [2] [%]	pest or weed control at 200 ppm [3] [%]	pest or weed control at 200 ppm [4] [%]	pest or weed control at 200 ppm [5] [%]
O=C(Nc1cccc(C2=NOC(c3cc(Cl)cc(Cl)c3)(C(F)(F)F)C2)c1)c1ccc(F)c(C(F)(F)F)c1 (racemic) [A18]	little or no effect	–	–	–	–
O=C(Nc1cccc(C2=NOC(c3cc(Cl)cc(Cl)c3)(C(F)(F)F)C2)c1F)c1cc(C(F)(F)F)ccc1F (racemic) [B23]	little or no effect	–	–	–	–
O=C(Nc1cc(C2=NOC(c3cc(Cl)cc(Cl)c3)(C(F)(F)F)C2)ccc1F)c1cc(Cl)ccc1F (racemic) [C11]	little or no effect	–	–	–	–
O=C(Nc1cc(C2=NOC(c3cc(Cl)cc(Cl)c3)(C(F)(F)F)C2)ccc1F)c1cc(C(F)(F)F)ccc1F (racemic) [C25]	little or no effect	–	–	–	–
O=C(Cc1ccc(Cl)cc1)Nc1cccc(C2=NOC(c3cc(Cl)cc(Cl)c3)(C(F)(F)F)C2)c1 (stereo not shown) [A5]	little or no effect	–	–	–	–
CCCCC(=O)Nc1cccc(C2=NOC(c3cc(Cl)cc(Cl)c3)(C(F)(F)F)C2)c1 (stereo not shown) [A6, pentanoic acid {3-[5-(3,5-dichloro-phenyl)-5-trifluoromethyl-4,5-dihydro-isoxazol-3-yl]-phenyl}-amide]	–	≥ 80	–	–	–
COCC(=O)Nc1cccc(C2=NOC(c3cc(Cl)cc(Cl)c3)(C(F)(F)F)C2)c1 (stereo not shown) [A7]	little or no effect	–	–	–	–
Cc1ccccc1C(=O)Nc1cccc(C2=NOC(c3cc(Cl)cc(Cl)c3)(C(F)(F)F)C2)c1F (stereo not shown) [B2]	–	≥ 80	≥ 80	≥ 80	≥ 80
O=C(Nc1cccc(C2=NOC(c3cc(Cl)cc(Cl)c3)(C(F)(F)F)C2)c1F)c1ccccc1Cl (stereo not shown) [B3]	–	≥ 80	≥ 80	≥ 80	≥ 80
Cc1ccc(C(=O)Nc2cccc(C3=NOC(c4cc(Cl)cc(Cl)c4)(C(F)(F)F)C3)c2F)cc1 (stereo not shown) [B6]	–	≥ 80	≥ 80	≥ 80	≥ 80
O=C(Nc1cccc(C2=NOC(c3cc(Cl)cc(Cl)c3)(C(F)(F)F)C2)c1F)c1ccccc1 (stereo not shown) [B16]	–	≥ 80	–	–	–
O=C(Nc1cccc(C2=NOC(c3cc(Cl)cc(Cl)c3)(C(F)(F)F)C2)c1F)c1cccc(F)c1F (stereo not shown) [B21]	–	≥ 80	≥ 80	≥ 80	≥ 80
O=C(Nc1cccc(C2=NOC(c3cc(Cl)cc(Cl)c3)(C(F)(F)F)C2)c1F)c1ccc(F)cc1F (stereo not shown) [B22]	–	≥ 80	–	–	≥ 80
O=C(Nc1cccc(C2=NOC(c3cc(Cl)cc(Cl)c3)(C(F)(F)F)C2)c1F)c1ccccn1 (stereo not shown) [B25]	–	–	–	≥ 80	–
O=C(Nc1cccc(C2=NOC(c3cc(Cl)cc(Cl)c3)(C(F)(F)F)C2)c1F)c1cccnc1 (stereo not shown) [B26]	–	≥ 80	≥ 80	≥ 80	≥ 80
CSc1ccccc1C(=O)Nc1cccc(C2=NOC(c3cc(Cl)cc(Cl)c3)(C(F)(F)F)C2)c1F (stereo not shown) [B27]	–	≥ 80	≥ 80	≥ 80	–
N#Cc1ccc(C(=O)Nc2cc(C3=NOC(c4cc(Cl)cc(Cl)c4)(C(F)(F)F)C3)ccc2F)cc1 (stereo not shown) [C1]	–	≥ 80	≥ 80	≥ 80	≥ 80
O=C(Nc1cc(C2=NOC(c3cc(Cl)cc(Cl)c3)(C(F)(F)F)C2)ccc1F)c1ccccc1F (stereo not shown) [C5]	–	≥ 80	–	≥ 80	≥ 80
Cc1ccccc1C(=O)Nc1cc(C2=NOC(c3cc(Cl)cc(Cl)c3)(C(F)(F)F)C2)ccc1F (stereo not shown) [C6]	–	≥ 80	≥ 80	≥ 80	≥ 80
O=C(Nc1cc(C2=NOC(c3cc(Cl)cc(Cl)c3)(C(F)(F)F)C2)ccc1F)c1ccccc1Cl (stereo not shown) [C7]	–	≥ 80	≥ 80	≥ 80	≥ 80
O=C(Nc1cc(C2=NOC(c3cc(Cl)cc(Cl)c3)(C(F)(F)F)C2)ccc1F)c1ccc([N+](=O)[O-])cc1 (stereo not shown) [C8]	–	≥ 80	≥ 80	≥ 80	≥ 80
O=C(Nc1cc(C2=NOC(c3cc(Cl)cc(Cl)c3)(C(F)(F)F)C2)ccc1F)c1ccco1 (stereo not shown) [C13]	–	≥ 80	–	–	–
O=C(Nc1cc(C2=NOC(c3cc(Cl)cc(Cl)c3)(C(F)(F)F)C2)ccc1F)c1ccccc1 (stereo not shown) [C19]	–	≥ 80	≥ 80	≥ 80	≥ 80
O=C(Nc1cc(C2=NOC(c3cc(Cl)cc(Cl)c3)(C(F)(F)F)C2)ccc1F)c1ccc(F)cc1 (stereo not shown) [C20]	–	≥ 80	≥ 80	≥ 80	≥ 80
O=C(Nc1cc(C2=NOC(c3cc(Cl)cc(Cl)c3)(C(F)(F)F)C2)ccc1F)c1cccc(F)c1F (stereo not shown) [C23]	–	≥ 80	–	–	≥ 80
N#Cc1ccc(C2=NOC(c3cc(Cl)cc(Cl)c3)(C(F)(F)F)C2)cc1NC(=O)c1ccco1 (stereo not shown) [D13]	–	≥ 80	≥ 80	≥ 80	–
N#Cc1ccc(C2=NOC(c3cc(Cl)cc(Cl)c3)(C(F)(F)F)C2)cc1NC(=O)c1cccc(F)c1F (stereo not shown) [D22]	–	≥ 80	≥ 80	≥ 80	≥ 80
Cc1cc(NC(=O)c2ccc(C#N)cc2)cc(C2=NOC(c3cc(Cl)cc(Cl)c3)(C(F)(F)F)C2)c1 (stereo not shown) [E1]	–	–	≥ 80	≥ 80	–
